Data published in ChEMBL document CHEMBL6071152, “Design, synthesis, and biological evaluation of oridonin derivatives as novel NLRP3 inflammasome inhibitors for the treatment of acute lung injury” (Eur J Med Chem, 2024).
The source made the active and inactive calls. The calls are words filed in the database; no cut-off is given here.

Assays:
[1] = molecular target: T1, Interferon-inducible protein AIM2 (Mus musculus) (UniProt Q91VJ1); experiment: Inhibition of AIM2 inflammasome activation in ICR mouse BMDM assessed as inhibition of poly(dA:dT)-stimulated IL-1 beta secretion in cell supernatant at 1 uM treated for 3 hrs with LPS followed by incubation with compound for 1 hr and later cells transfected with poly(dA:dT) for 4 hrs by ELISA; format: cell-based; details: time 5.0 hrs
T1 sequence (whole entry): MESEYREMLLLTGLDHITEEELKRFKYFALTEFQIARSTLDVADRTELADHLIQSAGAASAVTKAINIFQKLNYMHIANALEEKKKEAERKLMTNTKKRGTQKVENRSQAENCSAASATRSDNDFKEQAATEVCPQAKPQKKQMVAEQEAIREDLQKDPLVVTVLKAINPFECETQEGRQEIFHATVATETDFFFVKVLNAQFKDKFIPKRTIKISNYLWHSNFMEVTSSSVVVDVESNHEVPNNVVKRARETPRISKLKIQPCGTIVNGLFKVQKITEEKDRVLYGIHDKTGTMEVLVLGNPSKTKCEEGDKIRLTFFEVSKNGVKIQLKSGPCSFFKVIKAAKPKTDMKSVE

[2] = molecular target: NACHT, LRR and PYD domains-containing protein 3 (Mus musculus, UniProt Q8R4B8); experiment: Inhibition of NLRP3 inflammasome activation in ICR mouse BMDM assessed as inhibition of LPS/ATP-stimulated IL-1 beta production in cell supernatant treated for 3 hrs with LPS followed by incubation with compound for 1 hr and later stimulated with ATP for 0.5 hrs by ELISA; format: cell-based
[3] = molecular target: NACHT, LRR and PYD domains-containing protein 3 (Mus musculus) (UniProt Q8R4B8); experiment: Inhibition of NLRP3 inflammasome priming in ICR mouse BMDM assessed as inhibition of ASC expression in cell supernatant at 0.2 to 5 uM pretreated with compound for 1 hr followed by stimulation with LPS for 3 hrs and later incubated with ATP for 30 mins by western blot analysis; format: cell-based; details: dose 0.2-5 µM, time 4.5 hrs
Mus musculus [4] = experiment: (§1) Anti-inflammatory activity against LPS-stimulated acute lung injury C57BL/6 mouse model assessed as decrease in IL-6 mRNA expression in right lung at 0.1 to 1 mg/kg, ip treated for 3 days and on third day administered with LPS at 30 mins post-compound challenge and measured after 12 hrs by RT-qPCR analysis; format: functional, organism-based; details: dose 0.1-1 mg/kg, time 3.5 day
Mus musculus [5] = experiment: as §1, with “in caspase-1” for “in IL-6 mRNA”, “to 10” for “to 1”, “by western blot” for “by RT-qPCR”; format: functional, organism-based; details: dose 0.1-10 mg/kg, time 3.5 day
Mus musculus [6] = experiment: as §1, with “in IL-1 beta” for “in IL-6 mRNA”, “to 10” for “to 1”, “by western blot” for “by RT-qPCR”; format: functional, organism-based; details: dose 0.1-10 mg/kg, time 3.5 day
[7] = molecular target: NLR family CARD domain-containing protein 4 (Mus musculus) (UniProt Q3UP24); experiment: Inhibition of NLRC4 inflammasome activation in ICR mouse BMDM assessed as inhibition of FLA-ST-stimulated IL-1 beta expression in cell supernatant at 1 uM treated for 3 hrs with LPS followed by incubation with compound for 1 hr and later stimulated with FLA-ST for 2 hrs by western blot analysis; format: cell-based
[8] = molecular target: NLR family CARD domain-containing protein 4 (Mus musculus) (UniProt Q3UP24); experiment: Inhibition of NLRC4 inflammasome activation in ICR mouse BMDM assessed as inhibition of FLA-ST-stimulated caspase-1 expression in cell supernatant at 1 uM treated for 3 hrs with LPS followed by incubation with compound for 1 hr and later stimulated with FLA-ST for 2 hrs by western blot analysis; format: cell-based
[9] = molecular target: NACHT, LRR and PYD domains-containing protein 3 (Mus musculus) (UniProt Q8R4B8); experiment: Inhibition of NLRP3 inflammasome priming in ICR mouse BMDM assessed as inhibition of pro-IL-1 beta expression in cell lysate at 1 uM treated for 3 hrs with LPS followed by incubation with compound for 1 hr and later stimulated with nigericin for 0.5 hrs by western blot analysis; format: subcellular; details: time 1.5 hrs
[10] = molecular target: NACHT, LRR and PYD domains-containing protein 3 (Homo sapiens, UniProt Q96P20); experiment: Binding affinity to NLRP3 (unknown origin) by SPR assay
Mus musculus [11] = experiment: as §1, with “in inflammatory cell infiltration” for “in IL-6 mRNA expression”, “at 1” for “at 0.1”, “to 10” for “to 1”, “by Hematoxylin-Eosin staining” for “by RT-qPCR”; format: functional, organism-based; details: dose 1-10 mg/kg, time 3.5 day
[12] = molecular target: NACHT, LRR and PYD domains-containing protein 3 (Mus musculus) (UniProt Q8R4B8); experiment: Inhibition of NLRP3 inflammasome activation in ICR mouse BMDM assessed as inhibition of LPS/MSU-stimulated caspase-1 expression in cell supernatant at 1 uM treated for 3 hrs with LPS followed by incubation with compound for 1 hr and later stimulated with MSU for 4 hrs by western blot analysis; format: cell-based; details: time 5.0 hrs
Mus musculus [13] = experiment: as §1, with “in alveolar dilation” for “in IL-6 mRNA expression”, “at 1” for “at 0.1”, “to 10” for “to 1”, “by Hematoxylin-Eosin staining” for “by RT-qPCR”; format: functional, organism-based; details: dose 1-10 mg/kg, time 3.5 day
[14] = Cytotoxicity against ICR mouse BMDM assessed as reduction in cell viability incubated for 24 hrs by CCK8 assay; format: toxicity, cell-based; details: BMDM (bone marrow-derived macrophages)
[15] = molecular target: NACHT, LRR and PYD domains-containing protein 3 (Mus musculus) (UniProt Q8R4B8); experiment: Inhibition of NLRP3 inflammasome activation in ICR mouse BMDM assessed as inhibition of LPS/ATP-stimulated IL-1 beta expression in cell supernatant at 1 uM treated for 3 hrs with LPS followed by incubation with compound for 1 hr and later stimulated with ATP for 0.5 hrs by western blot analysis; format: cell-based; details: time 1.5 hrs
Mus musculus [16] = experiment: Anti-inflammatory activity against LPS-stimulated acute lung injury C57BL/6 mouse model assessed as decrease in IL-6 level in serum at 0.1 to 1 mg/kg, ip treated for 3 days and on third day administered with LPS at 30 mins post-compound challenge and measured after 12 hrs by ELISA; format: functional, organism-based; details: dose 0.1-1 mg/kg, time 3.5 day
[17] = molecular target: NACHT, LRR and PYD domains-containing protein 3 (Mus musculus) (UniProt Q8R4B8); experiment: Inhibition of NLRP3 inflammasome activation in ICR mouse BMDM assessed as inhibition of LPS/ATP-stimulated caspase-1 expression in cell supernatant treated for 3 hrs with LPS followed by incubation with compound for 1 hr and later stimulated with ATP for 0.5 hrs by western blot analysis; format: cell-based; details: dose 0.2-5 µM, time 1.5 hrs
[18] = molecular target: NACHT, LRR and PYD domains-containing protein 3 (Mus musculus) (UniProt Q8R4B8); experiment: Inhibition of NLRP3 inflammasome priming in ICR mouse BMDM assessed as inhibition of pro-IL-1 beta expression in cell supernatant at 0.2 to 5 uM pretreated with compound for 1 hr followed by stimulation with LPS for 3 hrs and later incubated with ATP for 30 mins by western blot analysis; format: cell-based; details: dose 0.2-5 µM, time 4.5 hrs
[19] = molecular target: NACHT, LRR and PYD domains-containing protein 3 (Mus musculus) (UniProt Q8R4B8); experiment: Inhibition of NLRP3 inflammasome priming in ICR mouse BMDM assessed as inhibition of LPS/ATP-stimulated TNF-alpha secretion in cell supernatant at 0.2 to 5 uM treated for 3 hrs with LPS followed by incubation with compound for 1 hr and later stimulated with ATP for 0.5 hrs by ELISA; format: cell-based; details: dose 0.2-5 µM, time 1.5 hrs
[20] = molecular target: NACHT, LRR and PYD domains-containing protein 3 (Mus musculus) (UniProt Q8R4B8); experiment: Inhibition of NLRP3 inflammasome priming in ICR mouse BMDM assessed as inhibition of pro-caspase-1 protein expression in cell lysate at 1 uM treated for 3 hrs with LPS followed by incubation with compound for 1 hr and later stimulated with ATP for 0.5 hrs by western blot analysis; format: subcellular; details: time 1.5 hrs
[21] = molecular target: NACHT, LRR and PYD domains-containing protein 3 (Mus musculus) (UniProt Q8R4B8); experiment: Inhibition of NLRP3 inflammasome activation in ICR mouse BMDM assessed as inhibition of LPS/MSU-stimulated IL-1 beta secretion in cell supernatant at 1 uM treated for 3 hrs with LPS followed by incubation with compound for 1 hr and later stimulated with MSU for 4 hrs by ELISA; format: cell-based; details: time 5.0 hrs

Chain of NACHT, LRR and PYD domains-containing protein 3 (Mus musculus) (Q8R4B8 whole entry, the tested form may be a part): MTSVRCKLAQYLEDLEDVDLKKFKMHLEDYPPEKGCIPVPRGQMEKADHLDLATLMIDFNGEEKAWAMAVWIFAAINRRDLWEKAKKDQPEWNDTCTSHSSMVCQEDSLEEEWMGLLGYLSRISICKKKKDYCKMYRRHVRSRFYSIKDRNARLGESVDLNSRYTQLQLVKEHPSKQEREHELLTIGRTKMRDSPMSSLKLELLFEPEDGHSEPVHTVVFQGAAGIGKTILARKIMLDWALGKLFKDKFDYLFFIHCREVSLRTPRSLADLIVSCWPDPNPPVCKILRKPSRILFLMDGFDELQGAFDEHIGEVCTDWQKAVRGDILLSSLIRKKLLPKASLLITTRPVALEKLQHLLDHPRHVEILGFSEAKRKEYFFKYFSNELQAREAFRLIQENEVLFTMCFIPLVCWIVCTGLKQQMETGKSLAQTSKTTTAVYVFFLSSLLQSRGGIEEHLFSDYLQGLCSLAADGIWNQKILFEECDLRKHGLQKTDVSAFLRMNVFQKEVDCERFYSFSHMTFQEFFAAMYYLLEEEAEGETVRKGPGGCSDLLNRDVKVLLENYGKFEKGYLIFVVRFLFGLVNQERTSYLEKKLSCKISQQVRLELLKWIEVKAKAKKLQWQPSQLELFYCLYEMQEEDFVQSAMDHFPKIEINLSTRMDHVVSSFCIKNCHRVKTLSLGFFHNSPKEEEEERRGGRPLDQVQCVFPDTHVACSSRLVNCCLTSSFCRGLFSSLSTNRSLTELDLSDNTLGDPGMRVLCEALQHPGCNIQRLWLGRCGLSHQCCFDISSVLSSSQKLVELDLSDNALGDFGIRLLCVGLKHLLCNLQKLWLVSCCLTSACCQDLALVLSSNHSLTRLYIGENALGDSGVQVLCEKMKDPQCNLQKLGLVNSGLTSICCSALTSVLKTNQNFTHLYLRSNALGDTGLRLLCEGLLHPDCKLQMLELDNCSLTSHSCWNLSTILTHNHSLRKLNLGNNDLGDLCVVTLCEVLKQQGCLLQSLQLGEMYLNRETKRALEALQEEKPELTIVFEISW
Chain of NLR family CARD domain-containing protein 4 (Mus musculus) (Q3UP24 whole entry, the tested form may be a part): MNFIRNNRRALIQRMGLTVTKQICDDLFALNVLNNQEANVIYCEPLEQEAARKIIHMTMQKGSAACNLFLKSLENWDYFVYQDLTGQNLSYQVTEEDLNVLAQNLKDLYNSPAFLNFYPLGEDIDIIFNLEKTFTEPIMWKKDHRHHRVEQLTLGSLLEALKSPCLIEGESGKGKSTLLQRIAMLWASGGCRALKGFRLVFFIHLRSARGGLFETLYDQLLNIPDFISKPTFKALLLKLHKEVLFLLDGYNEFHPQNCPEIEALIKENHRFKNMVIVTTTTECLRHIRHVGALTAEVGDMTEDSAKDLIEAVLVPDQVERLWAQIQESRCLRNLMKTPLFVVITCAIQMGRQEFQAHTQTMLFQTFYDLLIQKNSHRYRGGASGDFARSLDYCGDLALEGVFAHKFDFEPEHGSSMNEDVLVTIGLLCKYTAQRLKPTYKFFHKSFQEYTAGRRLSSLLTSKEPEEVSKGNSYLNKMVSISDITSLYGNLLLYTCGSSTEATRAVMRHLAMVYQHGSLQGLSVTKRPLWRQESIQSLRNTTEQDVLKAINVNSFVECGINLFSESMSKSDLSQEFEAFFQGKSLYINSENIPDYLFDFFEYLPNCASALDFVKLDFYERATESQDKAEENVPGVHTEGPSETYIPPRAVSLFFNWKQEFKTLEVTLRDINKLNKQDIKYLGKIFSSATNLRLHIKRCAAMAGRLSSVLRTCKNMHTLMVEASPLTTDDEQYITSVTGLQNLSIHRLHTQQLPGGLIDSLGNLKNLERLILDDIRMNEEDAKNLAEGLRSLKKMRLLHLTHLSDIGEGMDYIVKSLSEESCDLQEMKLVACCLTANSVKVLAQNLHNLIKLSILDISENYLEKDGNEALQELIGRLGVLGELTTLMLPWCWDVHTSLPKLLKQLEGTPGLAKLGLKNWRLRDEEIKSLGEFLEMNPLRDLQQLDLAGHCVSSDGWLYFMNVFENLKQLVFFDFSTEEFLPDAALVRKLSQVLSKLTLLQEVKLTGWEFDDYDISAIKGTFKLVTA
Chain of NACHT, LRR and PYD domains-containing protein 3 (Homo sapiens, UniProt Q96P20) (Q96P20 whole entry, the tested form may be a part): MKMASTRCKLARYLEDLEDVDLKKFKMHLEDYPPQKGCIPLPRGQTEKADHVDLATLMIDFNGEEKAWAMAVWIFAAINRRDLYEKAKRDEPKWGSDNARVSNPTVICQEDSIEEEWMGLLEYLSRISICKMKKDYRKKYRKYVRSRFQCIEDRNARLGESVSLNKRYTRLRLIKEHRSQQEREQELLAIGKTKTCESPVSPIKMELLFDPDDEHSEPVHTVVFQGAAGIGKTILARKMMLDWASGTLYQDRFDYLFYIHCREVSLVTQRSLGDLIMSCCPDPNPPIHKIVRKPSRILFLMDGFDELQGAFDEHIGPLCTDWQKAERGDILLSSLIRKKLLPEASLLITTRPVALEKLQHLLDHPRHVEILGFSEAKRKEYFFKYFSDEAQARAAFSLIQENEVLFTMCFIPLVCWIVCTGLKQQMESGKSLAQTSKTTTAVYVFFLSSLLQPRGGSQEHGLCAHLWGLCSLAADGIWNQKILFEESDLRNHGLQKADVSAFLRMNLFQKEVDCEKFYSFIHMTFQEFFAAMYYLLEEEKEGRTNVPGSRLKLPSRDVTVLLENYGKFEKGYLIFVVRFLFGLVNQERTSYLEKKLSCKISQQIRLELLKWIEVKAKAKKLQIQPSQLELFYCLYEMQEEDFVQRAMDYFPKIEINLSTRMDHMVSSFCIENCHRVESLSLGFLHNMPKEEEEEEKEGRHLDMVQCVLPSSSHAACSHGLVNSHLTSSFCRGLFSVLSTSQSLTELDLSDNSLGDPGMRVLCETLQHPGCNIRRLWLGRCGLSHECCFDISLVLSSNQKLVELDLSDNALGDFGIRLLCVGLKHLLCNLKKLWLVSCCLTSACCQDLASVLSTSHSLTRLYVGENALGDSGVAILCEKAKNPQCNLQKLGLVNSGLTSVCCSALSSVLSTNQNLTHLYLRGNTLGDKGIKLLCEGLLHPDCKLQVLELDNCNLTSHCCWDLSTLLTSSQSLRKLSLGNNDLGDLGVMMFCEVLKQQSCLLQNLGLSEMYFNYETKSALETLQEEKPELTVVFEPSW
Chain of NACHT, LRR and PYD domains-containing protein 3 (Mus musculus, UniProt Q8R4B8) (Q8R4B8 whole entry, the tested form may be a part): as the sequence (Q8R4B8 whole entry, the tested form may be a part) above

inhibition [1]: inactive
IC50 [2]: 0.0418 µM
inhibition [3]: inactive
inhibition [7]: inactive
inhibition [8]: inactive
inhibition [9]: inactive
Kd [10]: 5.17 µM
inhibition [12]: Active
inhibition [15]: Active
inhibition [17]: Dose-Dependent Effect
inhibition [18]: inactive
inhibition [19]: inactive
inhibition [20]: inactive
inhibition [21]: Active
Compound: C=C1C(=O)[C@]23[C@H](OC(=O)Nc4ccc(F)cc4)[C@H]1CC[C@H]2[C@]12C=CCC(C)(C)[C@H]1[C@H](O)[C@@]3(O)OC2
Activity (Mus musculus [4]): Dose-Dependent Effect
Activity (Mus musculus [5]): Active
Activity (Mus musculus [6]): Active
Activity (Mus musculus [11]): Active
Activity (Mus musculus [13]): Active
IC50 at 24 h [14]: > 10 µM
Activity (Mus musculus [16]): Dose-Dependent Effect
